Publication PMC6630796, “Spiroindolone Analogues as Potential Hypoglycemic with Dual Inhibitory Activity on α-Amylase and α-Glucosidase” (Molecules, 2019)

Key:
[1] = target: T1, α-amylase from Aspergillus oryzae (Aspergillus oryzae, UniProt P0C1B3); assay: biochemical; details: for α-Amylase Selectivity: IC50 (α-glucosidase)/IC50 (α-amylase)
T1 construct: purchased Sigma Aldrich
Experimental: Briefly, 250 μL (0.4 mg/mL) of sample was preincubated with 250 μL of α-amylase solution for 10 min at 25 °C in one set of tubes. In another set of tubes α-amylase was preincubated with 250 μL of phosphate buffer (pH 6.9). 250 μL of starch solution at increasing concentrations (0.2–1% (w/v)) was added to both sets of reaction mixtures to start the reaction. The mixture was then incubated for 10 min at 25 °C and then boiled for 15 min after the addition of 250 μL of DNS to stop the reaction. The amount of reducing sugars released was determined spectrophotometrically using a maltose standard curve and converted to reaction velocities.
(§1) The inhibitory concentration 50% (IC50) values were determined from the plots of percent inhibition versus log inhibitor concentration and calculated by logarithmic regression analysis from the mean inhibitory values.

[2] = target: T2, α-Glucosidase type 1 from baker’s yeast (Saccharomyces cerevisiae, UniProt P53341); assay: α-Glucosidase inhibition assay (p-nitrophenyl α-D-glucopyranoside, 405 nm); assay type: biochemical; details: for α-Glucosidase Selectivity: IC50 (α-amylase)/IC50 (α-glucosidase)
T2 construct: purchased Sigma-Aldrich G5003
Experimental: Sodium phosphate buffer (0.1 M) was adjusted by 0.1 N HCl to pH 7.0 with a pH meter (Thermo Fisher Scientific Inc., Waltham, MA, USA). p-Nitrophenyl α-D-glucopyranoside (10 mM) and α-glucosidase solutions (1 U/mL) were solubilized in 0.1 M sodium phosphate buffer (pH 7.0). All the reagents were manufactured shortly before use and warmed to 37 °C in a water bath. Sodium phosphate buffer (0.1 M, 158 μL per well) was added to a 96-well plate. α-Glucosidase (20 μL) and 2 μL of sample were added to 20 μL of p-nitrophenyl α-D-glucopyranoside. In the 200-μL final reaction volume (0.02 U/well, 0.1 U/mL) the substrate concentration was adjusted to […]. The background signal due to the sample color was measured at 405 nm with the PerkinElmer Wallac Victor3 spectrophotometer (PerkinElmer, Waltham, MA, USA) prior to adding the enzyme. Immediately following α-glucosidase addition, absorbance was measured at 405 nm 8 times at 1 min intervals.
as §1

T2 sequence (P53341 whole entry): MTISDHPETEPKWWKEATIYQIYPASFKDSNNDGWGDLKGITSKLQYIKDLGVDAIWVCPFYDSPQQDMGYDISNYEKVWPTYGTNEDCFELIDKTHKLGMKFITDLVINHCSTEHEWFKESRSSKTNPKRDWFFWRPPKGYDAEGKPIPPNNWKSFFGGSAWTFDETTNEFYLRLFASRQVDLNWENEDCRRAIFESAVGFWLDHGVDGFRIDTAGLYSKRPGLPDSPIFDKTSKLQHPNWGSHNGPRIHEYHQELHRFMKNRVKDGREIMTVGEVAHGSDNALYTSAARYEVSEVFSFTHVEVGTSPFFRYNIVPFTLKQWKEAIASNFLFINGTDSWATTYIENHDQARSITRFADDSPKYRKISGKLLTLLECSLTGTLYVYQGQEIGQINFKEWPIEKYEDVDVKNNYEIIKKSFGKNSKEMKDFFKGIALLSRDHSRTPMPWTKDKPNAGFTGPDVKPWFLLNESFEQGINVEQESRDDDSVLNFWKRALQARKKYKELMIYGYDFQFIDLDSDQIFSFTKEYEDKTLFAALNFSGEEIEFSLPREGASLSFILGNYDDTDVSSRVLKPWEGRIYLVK

SMILES	IC50 [1]	α-Amylase Selectivity [1]	melting point	IC50 [2]	α-Glucosidase Selectivity [2]
O=C(c1ccccc1)C1C(c2cc3ccccc3o2)C2CSCN2[C@@]12C(=O)Nc1ccc(Cl)cc12 (stereo partly drawn) [Compound 5a, (3S)-7′-(Benzofuran-2-yl)-6′-benzoyl-5-chloro-1′,6′,7′,7a′-tetrahydro-3′H-spiro[indoline-3,5′-pyrrolo[1,2-c]thiazol]-2-one]	693.22 ± 0.1 µM	0.67	132 to 133 °C	465.12 ± 0.12 µM	1.49
O=C(c1ccccc1)C1C(c2cc3ccccc3o2)C2C3CCCCC3CN2[C@@]12C(=O)Nc1ccc(Cl)cc12 (stereo partly drawn) [Compound 5b, (3S)-1′-(Benzofuran-2-yl)-2′-benzoyl-5-chloro-1′,2′,5′,5a′,6′,7′,8′,9′,9a′,9b′-decahydrospiro[indoline-3,3′-pyrrolo[2,1-a]isoindol]-2-one]			120 to 122 °C		
O=C(c1ccc(F)cc1)C1C(c2cc3ccccc3o2)C2CSCN2[C@@]12C(=O)Nc1ccc(Cl)cc12 (stereo partly drawn) [Compound 5c, (3S)-7′-(Benzofuran-2-yl)-5-chloro-6′-(4-fluorobenzoyl)-1′,6′,7′,7a′-tetrahydro-3′H-spiro[indoline-3,5′-pyrrolo[1,2-c]thiazol]-2-one]	718 ± 0.27 µM	0.81	110 to 112 °C	585.11 ± 0.02 µM	1.22
O=C(c1ccc(F)cc1)C1C(c2cc3ccccc3o2)C2C3CCCCC3CN2[C@@]12C(=O)Nc1ccc(Cl)cc12 (stereo partly drawn) [Compound 5d, (3S)-1′-(benzofuran-2-yl)-5-chloro-2′-(4-fluorobenzoyl)-1′,2′,5′,5a′,6′,7′,8′,9′,9a′,9b′-decahydrospiro-[indoline-3,3′-pyrrolo[2,1-a]isoindol]-2-one]			125 to 127 °C		
O=C(c1ccc(F)cc1)C1C(c2cc3ccccc3o2)C2C3CCCCC3CN2[C@@]12C(=O)Nc1ccc(Br)cc12 (stereo partly drawn) [Compound 5e, (3S)-1′-(Benzofuran-2-yl)-5-bromo-2′-(4-fluorobenzoyl)-1′,2′,5′,5a′,6′,7′,8′,9′,9a′,9b′-decahydrospiro-[indoline-3,3′-pyrrolo[2,1-a]isoindol]-2-one]			125 to 127 °C		
O=C(c1ccc(Br)cc1)C1C(c2cc3ccccc3o2)C2C3CCCCC3CN2[C@@]12C(=O)Nc1ccc(Cl)cc12 (stereo partly drawn) [Compound 5f, (3S)-1′-(Benzofuran-2-yl)-2′-(4-bromobenzoyl)-5-chloro-1′,2′,5′,5a′,6′,7′,8′,9′,9a′,9b′-decahydrospiro-[indoline-3,3′-pyrrolo[2,1-a]isoindol]-2-one]			120 to 121 °C		
O=C(c1ccc(Br)cc1)C1C(c2cc3ccccc3o2)C2CSCN2[C@@]12C(=O)Nc1ccc(Br)cc12 (stereo partly drawn) [Compound 5h, (3S)-7′-(Benzofuran-2-yl)-5-bromo-6′-(4-bromobenzoyl)-1′,6′,7′,7a′-tetrahydro-3′H-spiro[indoline-3,5′-pyrrolo[1,2-c]thiazol]-2-one]	589.04 ± 0.25 µM	0.83	118 to 120 °C	494.1 ± 0.04 µM	1.19
O=C(c1ccc(Br)cc1)C1C(c2cc3ccccc3o2)C2CSCN2[C@@]12C(=O)Nc1ccc(Cl)cc12 (stereo partly drawn) [Compound 5i, (3S)-7′-(Benzofuran-2-yl)-6′-(4-bromobenzoyl)-5-chloro-1′,6′,7′,7a′-tetrahydro-3′H-spiro[indoline-3,5′-pyrrolo[1,2-c]thiazol]-2-one]	779.08 ± 0.51 µM	0.87	144 to 145 °C	684.12 ± 0.35 µM	1.13
O=C(c1ccc(C(F)(F)F)cc1)C1C(c2cc3ccccc3o2)C2CSCN2[C@@]12C(=O)Nc1ccc(Cl)cc12 (stereo partly drawn) [Compound 5l, (3S)-7′-(Benzofuran-2-yl)-5-chloro-6′-(4-(trifluoromethyl)benzoyl)-1′,6′,7′,7a′-tetrahydro-3′H-spiro-[indoline-3,5′-pyrrolo[1,2-c]thiazol]-2-one]	558.07 ± 0.18 µM	0.74	110 to 112 °C	414.1 ± 0.52 µM	
O=C(c1ccc(F)cc1)C1C(c2cc3ccccc3o2)C2C3CCCCC3CN2[C@@]12C(=O)Nc1ccccc12 (stereo partly drawn) [Compound 5m, (3S)-1′-(Benzofuran-2-yl)-2′-(4-fluorobenzoyl)-1′,2′,5′,5a′,6′,7′,8′,9′,9a′,9b′-decahydrospiro[indoline-3,3′-pyrrolo[2,1-a]isoindol]-2-one]			137 to 138 °C		
O=C(c1ccc(Br)cc1)C1C(c2cc3ccccc3o2)C2C3CCCCC3CN2[C@@]12C(=O)Nc1ccccc12 (stereo partly drawn) [Compound 5n, (3S)-1′-(Benzofuran-2-yl)-2′-(4-bromobenzoyl)-1′,2′,5′,5a′,6′,7′,8′,9′,9a′,9b′-decahydrospiro[indoline-3,3′-pyrrolo[2,1-a]isoindol]-2-one]			118 to 120 °C		
O=C(c1ccc(Cl)cc1)C1C(c2cc3ccccc3o2)C2C3CCCCC3CN2[C@@]12C(=O)Nc1ccc(Cl)cc12 (stereo partly drawn) [Compound 5o, (3S)-1′-(Benzofuran-2-yl)-5-chloro-2′-(4-chlorobenzoyl)-1′,2′,5′,5a′,6′,7′,8′,9′,9a′,9b′-decahydrospiro-[indoline-3,3′-pyrrolo[2,1-a]isoindol]-2-one]			125 to 126 °C		
O=C(c1ccc(Cl)cc1)C1C(c2cc3ccccc3o2)C2CSCN2[C@@]12C(=O)Nc1ccc(Cl)cc12 (stereo partly drawn) [Compound 5p, (3S)-7′-(Benzofuran-2-yl)-5-chloro-6′-(4-chlorobenzoyl)-1′,6′,7′,7a′-tetrahydro-3′H-spiro[indoline-3,5′-pyrrolo[1,2-c]thiazol]-2-one]	488 ± 1.11 µM	0.80	105 to 106 °C	392.1 ± 1.07 µM	1.24
